Results taken from article PMC10873978, “Novel tetrahydroisoquinolines as DHFR and CDK2 inhibitors: synthesis, characterization, anticancer activity and antioxidant properties” (BMC Chemistry, 2024).

How the values were obtained:
[1] = system: MCF7 cell line; experiment: In vitro cytotoxic activity, MTT method, MCF7; type: cell-based, human; conditions: for IC50: Homo sapiens, MCF7, MCF7 cell line, MTT
Summary of the method: (§1)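 MTT assay: cells seeded at 10^5 cells/mL, grown 24 h at 37 °C to a monolayer, then exposed to serial tetrahydroisoquinoline concentrations at 37 °C. MTT (5 mg/mL stock) added for 1–5 h; OD read at 560 nm minus 620 nm background. Doxorubicin as positive control.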

[2] = system: A549 cell line; experiment: In vitro cytotoxic activity, MTT method, A549; conditions: for IC50: Homo sapiens, read-out: IC50 ± SD
Summary of the method: as §1

[3] = DPPH scavenging antioxidant activity
Summary of the method: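 Samples dissolved in DMSO, diluted in ethanol, and mixed 1:1 with ethanolic DPPH (0.002 g/50 mL); kept 30 min in the dark. Absorbance read at 517 nm against ethanol blank, with ascorbic acid as reference; scavenging given as %, mean ± SD of three replicates.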

In the case of `CC(=O)c1ccc(NC(=O)CSc2nc(C)c3c(c2C#N)CC(C)(O)C(C(C)=O)C3c2ccc(N(C)C)cc2)cc1` (centres unmarked) [Compound 7d, 2-[(7-Acetyl-4-cyano-1,6-dimethyl-6-hydroxy-8-(4-N,N-dimethylamino-phenyl)-5,6,7,8-tetrahydroisoquinolin-3-yl)thio]-N-(4-acetylphenyl)acetamide], the IC50 [1] is reported as 495 ± 2 nM, the Toxicity % ([1]; MCF7, 0.0487 µMol) is reported as 1.8855% and the Viability % ([1]; MCF7, 0.0487 µMol) is reported as 98.2255%. For the same compound, the Toxicity % ([1]; MCF7, 0.0975 µMol) was 3.5566%, the Viability % ([1]; MCF7, 0.0975 µMol) was 96.5544% and the Toxicity % ([1]; MCF7, 0.195 µMol) was 5.106%. It also gave a Viability % ([1]; MCF7, 0.195 µMol) of 94.89%, a Toxicity % ([1]; MCF7, 0.391 µMol) of 28.72% and a Viability % ([1]; MCF7, 0.391 µMol) of 71.28%. The Toxicity % ([1]; MCF7, 0.781 µMol) was 52.53%, the Viability % ([1]; MCF7, 0.781 µMol) was 47.47% and the Toxicity % ([1]; MCF7, 1.562 µMol) was 65.69%. The Viability % ([1]; MCF7, 1.562 µMol) was 34.31%, the Toxicity % ([1]; MCF7, 3.125 µMol) was 76.63% and the Viability % ([1]; MCF7, 3.125 µMol) was 23.37%. The Toxicity % ([1]; MCF7, 6.25 µMol) was 94.04%, the Viability % ([1]; MCF7, 6.25 µMol) was 5.964% and the Toxicity % ([1]; MCF7, 12.5 µMol) was 96.65%. The Viability % ([1]; MCF7, 12.5 µMol) was 3.35%, the Toxicity % ([1]; MCF7, 25 µMol) was 96.73% and the Viability % ([1]; MCF7, 25 µMol) was 3.268%. For the same compound, the Toxicity % ([2]; A549, Conc. 0.04875 µMol) was 1.982%, the Viability % ([2]; A549, Conc. 0.04875 µMol) was 98.02% and the Toxicity % ([2]; A549, Conc. 0.0975 µMol) was 2.4569%. For the same compound, the Viability % ([2]; A549, Conc. 0.0975 µMol) was 97.5431%, the Toxicity % ([2]; A549, Conc. 0.195 µMol) was 3.708% and the Viability % ([2]; A549, Conc. 0.195 µMol) was 96.29%. It also gave a Toxicity % ([2]; A549, Conc. 0.391 µMol) of 36.8%, a Viability % ([2]; A549, Conc. 0.391 µMol) of 63.2% and a Toxicity % ([2]; A549, Conc. 0.781 µMol) of 53.89%. It also gave a Viability % ([2]; A549, Conc. 0.781 µMol) of 46.11%, a Toxicity % ([2]; A549, Conc. 1.562 µMol) of 70.45% and a Viability % ([2]; A549, Conc. 1.562 µMol) of 29.55%. The Toxicity % ([2]; A549, Conc. 3.125 µMol) was 77.08%, the Viability % ([2]; A549, Conc. 3.125 µMol) was 22.92% and the Toxicity % ([2]; A549, Conc. 6.25 µMol) was 86.79%. It also gave a Viability % ([2]; A549, Conc. 6.25 µMol) of 13.21%, a Toxicity % ([2]; A549, Conc. 12.5 µMol) of 92.98% and a Viability % ([2]; A549, Conc. 12.5 µMol) of 7.022%. It also gave a Toxicity % ([2]; A549, Conc. 25 µMol) of 96.61%, a Viability % ([2]; A549, Conc. 25 µMol) of 3.393% and an IC50 [2] of 446 ± 4 nM. For the same compound, the “DPPH scavenging, inhibition (%)” value ([3]; 0.01 µg/mL) was 48.08 ± 0.87% and the “DPPH scavenging, inhibition (%)” value ([3]; 0.05 µg/mL) was 69.73 ± 0.73%.

For `CC(=O)C1C(c2ccc(N(C)C)cc2)c2c(C)nc3sc(C(=O)Nc4ccccc4)c(N)c3c2CC1(C)O` (centres unmarked) [Compound 8a, 7-Acetyl-1-amino-5,8-dimethyl-8-hydroxy-6-(4-N,N-dimethylaminophenyl)-N-phenyl-6,7,8,9-tetrahydrothieno[2,3-c]isoquinoline-2-carboxamide], the IC50 [1] was 872 ± 3 nM, the Toxicity % ([1]; MCF7, Conc. 0.0487 µMol) was -1.567% and the Viability % ([1]; MCF7, Conc. 0.0487 µMol) was 101.5%. The Toxicity % ([1]; MCF7, Conc. 0.0975 µMol) was -0.5332%, the Viability % ([1]; MCF7, Conc. 0.0975 µMol) was 100.6% and the Toxicity % ([1]; MCF7, Conc. 0.195 µMol) was -0.4085%. It also gave a Viability % ([1]; MCF7, Conc. 0.195 µMol) of 100.4%, a Toxicity % ([1]; MCF7, Conc. 0.391 µMol) of 8.047% and a Viability % ([1]; MCF7, Conc. 0.391 µMol) of 91.95%. For the same compound, the Toxicity % ([1]; MCF7, Conc. 0.781 µMol) was 34.56%, the Viability % ([1]; MCF7, Conc. 0.781 µMol) was 65.44% and the Toxicity % ([1]; MCF7, Conc. 1.562 µMol) was 65.28%. For the same compound, the Viability % ([1]; MCF7, Conc. 1.562 µMol) was 34.72%, the Toxicity % ([1]; MCF7, Conc. 3.125 µMol) was 87.21% and the Viability % ([1]; MCF7, Conc. 3.125 µMol) was 12.79%. For the same compound, the Toxicity % ([1]; MCF7, Conc. 6.25 µMol) was 94.16%, the Viability % ([1]; MCF7, Conc. 6.25 µMol) was 5.842% and the Toxicity % ([1]; MCF7, Conc. 12.5 µMol) was 96.9%. For the same compound, the Viability % ([1]; MCF7, Conc. 12.5 µMol) was 3.105%, the Toxicity % ([1]; MCF7, Conc. 25 µMol) was 97.43% and the Viability % ([1]; MCF7, Conc. 25 µMol) was 2.574%. It also gave a Toxicity % ([2]; A549, Conc. 0.04875 µMol) of 3.135%, a Toxicity % ([2]; A549, Conc. 0.0975 µMol) of 3.679% and a Toxicity % ([2]; A549, Conc. 0.195 µMol) of 4.221%. It also gave a Viability % ([2]; A549, Conc. 0.195 µMol) of 95.78%, a Toxicity % ([2]; A549, Conc. 0.391 µMol) of 10.77% and a Viability % ([2]; A549, Conc. 0.391 µMol) of 89.23%. The Toxicity % ([2]; A549, Conc. 0.781 µMol) was 39.61%, the Viability % ([2]; A549, Conc. 0.781 µMol) was 60.39% and the Toxicity % ([2]; A549, Conc. 1.562 µMol) was 53.57%. The Viability % ([2]; A549, Conc. 1.562 µMol) was 46.43%, the Toxicity % ([2]; A549, Conc. 3.125 µMol) was 74.67% and the Viability % ([2]; A549, Conc. 3.125 µMol) was 25.33%. For the same compound, the Toxicity % ([2]; A549, Conc. 6.25 µMol) was 88.24%, the Viability % ([2]; A549, Conc. 6.25 µMol) was 11.76% and the Toxicity % ([2]; A549, Conc. 12.5 µMol) was 96.69%. The Viability % ([2]; A549, Conc. 12.5 µMol) was 3.314%, the Toxicity % ([2]; A549, Conc. 25 µMol) was 97.95% and the Viability % ([2]; A549, Conc. 25 µMol) was 2.051%. The IC50 [2] was 1045 ± 6 nM, the “DPPH scavenging, inhibition (%)” value ([3]; 0.01 µg/mL) was 14.22 ± 1.32% and the “DPPH scavenging, inhibition (%)” value ([3]; 0.05 µg/mL) was 23.66 ± 2.12%.
